Results: publication PMC11047580, “Design and Synthesis of Novel Amino and Acetamidoaurones with Antimicrobial Activities” (Antibiotics, 2024)
Converted amounts (≈) assume the structure as drawn.

Legend:
P. aeruginosa ATCC9027 = experiment: MIC assay; format: cell-based, Pseudomonas aeruginosa; settings: two-fold serial dilutions in liquid media, n = 2–3
M. smegmatis ATCC700084 = experiment: MIC assay (REMA); format: cell-based, Mycobacterium smegmatis; settings: n = 2–3
B. subtilis ATCC6633 = experiment: MIC assay; format: cell-based, Bacillus subtilis; settings: two-fold serial dilutions in liquid media, n = 2–3
C. albicans DSM10697 = experiment: MIC assay; format: cell-based, Candida albicans; settings: two-fold serial dilutions in liquid media, n = 2–3
S. aureus ATCC6538P = experiment: MIC assay; format: cell-based, Staphylococcus aureus; settings: two-fold serial dilutions in liquid media, n = 2–3
E. coli ATCC8739 = experiment: MIC assay; format: cell-based, Escherichia coli; settings: two-fold serial dilutions in liquid media, n = 2–3
[1] = Pseudomonas aeruginosa, ATCC9027
[2] = Mycolicibacterium smegmatis, ATCC700084, REMA microdilution
[3] = Staphylococcus aureus, ATCC6538P

Question: For `CC(=O)Nc1ccc2c(c1)C(=O)/C(=C/c1ccc(OCc3ccccc3)cc1)O2` [Compound 11, (Z)-N-(2-(4-(benzyloxy)benzylidene)-3-oxo-2,3-dihydrobenzofuran-5-yl)acetamide], which MIC (P. aeruginosa ATCC9027; [1]) is on record?
Answer: The MIC was greater than 100 µM.

Question: What about the melting point of the same compound?
Answer: The melting point was 212.8 °C.

Question: What about the MIC (M. smegmatis ATCC700084; [2]) of the same compound?
Answer: Its MIC is greater than 100 µM.

Question: What about the MIC (B. subtilis ATCC6633; Bacillus subtilis, ATCC6633) of the same compound?
Answer: The MIC was greater than 100 µM.

Question: What about the MIC (C. albicans DSM10697; Candida albicans, DSM10697) of the same compound?
Answer: The MIC was greater than 100 µM.

Question: And the MIC (S. aureus ATCC6538P; [3])?
Answer: Its MIC is greater than 100 µM.

Question: And the MIC (E. coli ATCC8739; Escherichia coli, ATCC8739)?
Answer: Its MIC is greater than 100 µM.

Question: For `Nc1ccc2c(c1)C(=O)/C(=C/c1ccc(Oc3ccccc3)cc1)O2` [Compound 17, (Z)-5-amino-2-(4-phenoxybenzylidene)benzofuran-3(2H)-one], which MIC (P. aeruginosa ATCC9027; [1]) is on record?
Answer: Its MIC is greater than 100 µM.

Question: What about the melting point of the same compound?
Answer: Its melting point is 170.6 °C.

Question: And the MIC (M. smegmatis ATCC700084; [2])?
Answer: The MIC was greater than 100 µM.

Question: And the MIC (B. subtilis ATCC6633; Bacillus subtilis, ATCC6633)?
Answer: Its MIC is greater than 100 µM.

Question: And the MIC (C. albicans DSM10697; Candida albicans, DSM10697)?
Answer: The MIC was greater than 100 µM.

Question: And the MIC (S. aureus ATCC6538P; [3])?
Answer: Its MIC is greater than 100 µM.

Question: And the MIC (E. coli ATCC8739; Escherichia coli, ATCC8739)?
Answer: Its MIC is greater than 100 µM.

Question: For `CC(=O)Nc1ccc2c(c1)C(=O)/C(=C/c1ccccc1F)O2` [Compound 24, (Z)-N-(2-(2-fluorobenzylidene)-3-oxo-2,3-dihydrobenzofuran-5-yl)acetamide], which MIC (P. aeruginosa ATCC9027; [1]) is on record?
Answer: The MIC was greater than 100 µM.

Question: What about the melting point of the same compound?
Answer: Its melting point is 226 °C.

Question: And the MIC (M. smegmatis ATCC700084; [2])?
Answer: Its MIC is greater than 100 µM.

Question: What about the MIC (B. subtilis ATCC6633; Bacillus subtilis, ATCC6633) of the same compound?
Answer: The MIC was greater than 100 µM.

Question: And the MIC (C. albicans DSM10697; Candida albicans, DSM10697)?
Answer: Its MIC is greater than 100 µM.

Question: And the MIC (S. aureus ATCC6538P; [3])?
Answer: Its MIC is greater than 100 µM.

Question: What about the MIC (E. coli ATCC8739; Escherichia coli, ATCC8739) of the same compound?
Answer: The MIC was greater than 100 µM.

Question: Which MIC (P. aeruginosa ATCC9027; [1]) does the source give for `COc1cccc(/C=C2\Oc3ccc(N)cc3C2=O)c1` [Compound 8, (Z)-5-amino-2-(3-methoxybenzylidene)benzofuran-3(2H)-one] here?
Answer: The MIC was greater than 100 µM.

Question: What about the MIC (M. smegmatis ATCC700084; [2]) of the same compound?
Answer: Its MIC is greater than 100 µM.

Question: What about the MIC (B. subtilis ATCC6633; Bacillus subtilis, ATCC6633) of the same compound?
Answer: Its MIC is greater than 100 µM.

Question: And the MIC (C. albicans DSM10697; Candida albicans, DSM10697)?
Answer: The MIC was greater than 100 µM.

Question: And the MIC (S. aureus ATCC6538P; [3])?
Answer: Its MIC is greater than 100 µM.

Question: And the MIC (E. coli ATCC8739; Escherichia coli, ATCC8739)?
Answer: The MIC was greater than 100 µM.

Question: Which MIC (P. aeruginosa ATCC9027; [1]) does the source give for `COc1cccc(/C=C2\Oc3ccc(NC(C)=O)cc3C2=O)c1` [Compound 5, (Z)-N-(2-(3-methoxybenzylidene)-3-oxo-2,3-dihydrobenzofuran-5-yl)acetamide] here?
Answer: The MIC was greater than 100 µM.

Question: What about the melting point of the same compound?
Answer: Its melting point is 204.2 °C.

Question: What about the MIC (M. smegmatis ATCC700084; [2]) of the same compound?
Answer: The MIC was 100 µM (≈ 30.9 µg/mL).

Question: And the MIC (B. subtilis ATCC6633; Bacillus subtilis, ATCC6633)?
Answer: The MIC was greater than 100 µM.

Question: And the MIC (C. albicans DSM10697; Candida albicans, DSM10697)?
Answer: The MIC was greater than 100 µM.

Question: What about the MIC (S. aureus ATCC6538P; [3]) of the same compound?
Answer: The MIC was 100 µM (≈ 30.9 µg/mL).

Question: And the MIC (E. coli ATCC8739; Escherichia coli, ATCC8739)?
Answer: The MIC was greater than 100 µM.

Question: Which MIC (P. aeruginosa ATCC9027; [1]) does the source give for `Nc1ccc2c(c1)C(=O)/C(=C/c1cccc(F)c1)O2` [Compound 27, (Z)-5-amino-2-(3-fluorobenzylidene)benzofuran-3(2H)-one] here?
Answer: The MIC was greater than 100 µM.

Question: What about the MIC (M. smegmatis ATCC700084; [2]) of the same compound?
Answer: The MIC was greater than 100 µM.

Question: And the MIC (B. subtilis ATCC6633; Bacillus subtilis, ATCC6633)?
Answer: Its MIC is greater than 100 µM.

Question: And the MIC (C. albicans DSM10697; Candida albicans, DSM10697)?
Answer: Its MIC is greater than 100 µM.

Question: What about the MIC (S. aureus ATCC6538P; [3]) of the same compound?
Answer: The MIC was greater than 100 µM.

Question: And the MIC (E. coli ATCC8739; Escherichia coli, ATCC8739)?
Answer: Its MIC is greater than 100 µM.

Question: With `C[C@@H]1[C@H](O)[C@@H](C)/C=C/C=C/C=C/C=C/C=C/C=C/C=C/[C@H](O[C@@H]2O[C@H](C)[C@@H](O)[C@H](N)[C@@H]2O)C[C@@H]2O[C@](O)(C[C@@H](O)C[C@@H](O)[C@H](O)CC[C@@H](O)C[C@@H](O)CC(=O)O[C@H]1C)C[C@H](O)[C@H]2C(=O)O` [Amphotericin B, reference compound] as the compound, how does the MIC (C. albicans DSM10697; Candida albicans, DSM10697) read?
Answer: Its MIC is 0.62 µM (≈ 0.573 µg/mL).

Question: With `CC(=O)Nc1ccc2c(c1)C(=O)/C(=C/c1cccc(F)c1)O2` [Compound 25, (Z)-N-(2-(3-fluorobenzylidene)-3-oxo-2,3-dihydrobenzofuran-5-yl)acetamide] as the compound, how does the MIC (P. aeruginosa ATCC9027; [1]) read?
Answer: Its MIC is greater than 100 µM.

Question: And the melting point?
Answer: Its melting point is 243.6 °C.

Question: What about the MIC (M. smegmatis ATCC700084; [2]) of the same compound?
Answer: Its MIC is 100 µM (≈ 29.7 µg/mL).

Question: And the MIC (B. subtilis ATCC6633; Bacillus subtilis, ATCC6633)?
Answer: The MIC was 50 µM (≈ 14.9 µg/mL).

Question: What about the MIC (C. albicans DSM10697; Candida albicans, DSM10697) of the same compound?
Answer: Its MIC is greater than 100 µM.

Question: What about the MIC (S. aureus ATCC6538P; [3]) of the same compound?
Answer: Its MIC is greater than 100 µM.

Question: And the MIC (E. coli ATCC8739; Escherichia coli, ATCC8739)?
Answer: Its MIC is greater than 100 µM.

Question: For `CC(=O)Nc1ccc2c(c1)C(=O)/C(=C/c1cccc(O)c1)O2` [Compound 32, (Z)-N-(2-(3-hydroxybenzylidene)-3-oxo-2,3-dihydrobenzofuran-5-yl)acetamide], which MIC (P. aeruginosa ATCC9027) is on record?
Answer: The MIC was greater than 100 µM.

Question: What about the MIC (M. smegmatis ATCC700084; REMA microdilution) of the same compound?
Answer: Its MIC is greater than 100 µM.

Question: And the MIC (B. subtilis ATCC6633)?
Answer: Its MIC is greater than 100 µM.

Question: And the MIC (C. albicans DSM10697)?
Answer: Its MIC is greater than 100 µM.

Question: What about the MIC (S. aureus ATCC6538P) of the same compound?
Answer: The MIC was greater than 100 µM.

Question: What about the MIC (E. coli ATCC8739) of the same compound?
Answer: The MIC was greater than 100 µM.

Question: Which MIC (P. aeruginosa ATCC9027; [1]) does the source give for `CO/N=C1\CN(c2nc3c(cc2F)c(=O)c(C(=O)O)cn3C2CC2)CC1CN` (stereo not drawn) [Gemifloxacin, reference compound] here?
Answer: Its MIC is 0.25 µM (≈ 0.0973 µg/mL).

Question: And the MIC (M. smegmatis ATCC700084; [2])?
Answer: The MIC was 2 µM (≈ 0.779 µg/mL).

Question: What about the MIC (B. subtilis ATCC6633; Bacillus subtilis, ATCC6633) of the same compound?
Answer: The MIC was 0.03 µM (≈ 0.0117 µg/mL).

Question: What about the MIC (S. aureus ATCC6538P; [3]) of the same compound?
Answer: Its MIC is 0.06 µM (≈ 0.0234 µg/mL).

Question: And the MIC (E. coli ATCC8739; Escherichia coli, ATCC8739)?
Answer: The MIC was 0.06 µM (≈ 0.0234 µg/mL).

Question: Which results are given for `COc1ccccc1/C=C1\Oc2ccc(N)cc2C1=O` [Compound 7, (Z)-5-amino-2-(2-methoxybenzylidene)benzofuran-3(2H)-one]?
Answer: MIC (P. aeruginosa ATCC9027; [1]): > 100 µM; melting point: 189.3 °C; MIC (M. smegmatis ATCC700084; [2]): > 100 µM; MIC (B. subtilis ATCC6633; Bacillus subtilis, ATCC6633): > 100 µM; MIC (C. albicans DSM10697; Candida albicans, DSM10697): > 100 µM; MIC (S. aureus ATCC6538P; [3]): > 100 µM; MIC (E. coli ATCC8739; Escherichia coli, ATCC8739): > 100 µM
